Results as given in patent US8273775B2, “Non-steroidal brassinosteroid mimetic” (priority 2006, dated 2012).

Assays:
cpd, det2-1 mutants = experiment: Phenotype rescue of BR-biosynthesis mutants; type: in vivo, Arabidopsis thaliana; details: for phenotype rescue of cpd mutant: day 5 to day 11 on 1 μM BL or 30 μM ABRASIN; for rescue of dwarfed phenotype: light-grown, abrasin 50 μM or BL 1 μM
Protocol: (§1) FIG. 5: Effect of brassinolide (BL) and abrasin (I5) treatment on mutants. WT or mutant plants were grown under standard conditions on agar plates. After 3 days of germination, plants were transferred to agar plates containing abrasin at a concentration of 50 μM or BL at a concentration of 1 μM.
(§2) For further phenotypical analysis, all plants were grown on vertically oriented square plates (Greiner Labortechnik, Austria) with solid medium derived from standard Murashige and Skoog medium under the same conditions. For the hypocotyl-elongation assay, plants were grown in the dark at 22° C. under the same conditions.
(§3) Col-0, the null BR signaling bri1-116 (Friedrichsen et al., 2000) and BR biosynthetic cpd (Szekeres et al., 1996) mutants were subjected to phenotype rescue analysis by treatments with BL and ABRASIN. As a negative control, dimethylsulfoxide (DMSO) was used. Plants were germinated in vitro for 5 days on ½ MS containing DMSO medium and from day 6th to day 11th they were transferred on medium supplemented with BL (10 nM, 100 nM, 1000 nM), ABRASIN (5 μM, 10 μM, 30 μM) or DMSO. Cotyledons and leaves were collected for flowcytometric analysis at the 11th day (i.e. 6 days of treatments). Samples for β-glucuronidase (GUS) assay were taken on day 6th (i.e. 1 day treatments), 8th (i.e. 3 days treatments), 10th (i.e. 5 days treatments). Rescue of soil-grown mutants at different growth stages was checked by watering bri1-116 and cpd mutants with either BL or 2 ml 300 μM ABRASIN per day.

[1] = system: bri1-116, bri1-301 mutants; experiment: Phenotype rescue of BR perception (receptor) mutants; type: in vivo, Arabidopsis thaliana; details: for phenotype rescue of bri1-116 mutant: day 5 to day 11 on 1 μM BL or 30 μM ABRASIN; for rescue of dwarfed phenotype: light-grown, abrasin 50 μM or BL 1 μM
Protocol: as §1, §2, §3

[2] = system: BES1 protein in 35S:BES1:GFP plants; experiment: Western blot analysis of BES1 phosphorylation state; type: in vivo, Arabidopsis thaliana
Protocol: FIG. 8: A: Western Blot analysis of the BES1 protein in 35S:BES1:GFP plants treated with BL and abrasin (indicated as I5 throughout the figure) (A); MG132 with BL or abrasin (B); a time course with abrasin (C) and a concentration gradient with abrasin (D). B: Abrasin and BL induce similar transcriptional regulation of the BR pathway.
For protein extraction, six-day-old seedlings were grown under standard conditions as described earlier on solid medium. Plants were next soaked in liquid MS-medium supplemented with the indicated compounds (concentrations and time periods as indicated in figures). Subsequently, plants were frozen in liquid nitrogen, ground and homogenized in ice-cold homogenization buffer (25 mM Tris-HCl (pH 8), 5 mM EDTA, 1 mM β-Mercapto-ethanol, 15 mM MgCl—2, 85 mM NaCl, 0.1% Tween 20, 1 protease inhibitor tablet/50 ml, Complete (Roche diagnostics, Belgium)). The homogenate was centrifuged twice (5 min, 14.000 rpm, 4° C.) in an Eppendorf Centrifuge 5417. Loading buffer was added, the samples were heated for 10 min at 95° C. and centrifuged. The samples were separated on a 12% acrylamide gel or a 4-20% gradient pre-cast gel (Bio-Rad) and blotted on nitrocellulose membranes (Hybond-C super, GE-Biosciences, UK) in 190 mM glycine and 25 mM Tris-Hcl using a mini-blotting system (Bio-Rad, USA) for 1 h. Membranes were blocked overnight at 4° C. in phosphate buffer with 0.1% Tween 20 and 5% skim milk (BD Difco, USA). For immunodetection, anti-BES1 antibodies at 1:2000 dilution and anti-GFP antibodies at 1:1000 dilution were used as primary antibody. As secondary antibody, anti-rat and anti-rabbit were used at 1:10.000 dilution. The proteins were detected by chemiluminescence (Perkin-Elmer, USA).

AtMPK4 = biological target: T1, AtMPK4 (Arabidopsis thaliana, UniProt Q39024); experiment: Kinase assay with AtMPK4 and MBP as substrate; type: biochemical; details: 10 μM abrasin
T1 sequence (Q39024 1-376): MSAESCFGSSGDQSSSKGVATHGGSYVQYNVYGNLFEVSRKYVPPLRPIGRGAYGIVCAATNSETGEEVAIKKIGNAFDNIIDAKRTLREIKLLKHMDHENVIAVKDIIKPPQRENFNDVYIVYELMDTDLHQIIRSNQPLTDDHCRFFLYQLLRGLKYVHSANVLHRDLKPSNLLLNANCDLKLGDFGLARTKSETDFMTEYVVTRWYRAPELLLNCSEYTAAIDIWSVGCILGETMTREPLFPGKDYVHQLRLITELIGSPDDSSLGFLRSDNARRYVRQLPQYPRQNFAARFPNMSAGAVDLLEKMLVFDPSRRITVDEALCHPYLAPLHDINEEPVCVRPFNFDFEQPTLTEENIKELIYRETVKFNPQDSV
Protocol: (§4) Coomassie staining was used as a loading control. b, Autoradiography of kinase assays with nine ASKs with MBP as a substrate in the presence or absence of 10 μM abrasin. The second member of group IV, ASKκ, had no kinase activity and was not included in the analysis. c, Autoradiography of kinase assays with AtMPK4, AtMPK6 and MBP as a substrate (left) and with AtAUR1 kinase and histone H3 as a substrate (right) in the presence or absence of 10 μM abrasin.
(§5) For in vitro kinase assays, MBP, MBP-BES1, and MBP-bes1 (20 ng each) were incubated with GST-BIN2 or GST-BRI1 kinase (200 ng each) in 20 μl of kinase buffer (20 mM Tris [pH 7.5], 100 mM NaCl, and 12 mM MgCl2) and 10 μCi ^32P-γATP. After incubation at 37° C. for 40 min, the reactions were stopped by adding 20 μl of 2×SDS buffer and boiling at 94° C. for 5 min. Proteins were resolved by a PAGE gel and phosphorylation was detected by exposing the dried gel to X-ray film. […]
(§6) Besides BIN2, nine additional GSK-3 kinases (also designated ASKs for Arabidopsis SHAGGY-related kinases) divided into four subgroups (I-IV) have been identified in Arabidopsis (Jonak and Hirt, 2002; Yoo et al. 2006). To determine the specificity of abrasin, its effect on the kinase activity of all ASKs was analyzed with myelin basic protein (MBP) as a general substrate. […]

AtMPK6 = AtMPK6 (Arabidopsis thaliana, UniProt Q39026); experiment: Kinase assay with AtMPK6 and MBP as substrate; type: biochemical; details: 10 μM abrasin
Sequence of AtMPK6 (Q39026 whole entry): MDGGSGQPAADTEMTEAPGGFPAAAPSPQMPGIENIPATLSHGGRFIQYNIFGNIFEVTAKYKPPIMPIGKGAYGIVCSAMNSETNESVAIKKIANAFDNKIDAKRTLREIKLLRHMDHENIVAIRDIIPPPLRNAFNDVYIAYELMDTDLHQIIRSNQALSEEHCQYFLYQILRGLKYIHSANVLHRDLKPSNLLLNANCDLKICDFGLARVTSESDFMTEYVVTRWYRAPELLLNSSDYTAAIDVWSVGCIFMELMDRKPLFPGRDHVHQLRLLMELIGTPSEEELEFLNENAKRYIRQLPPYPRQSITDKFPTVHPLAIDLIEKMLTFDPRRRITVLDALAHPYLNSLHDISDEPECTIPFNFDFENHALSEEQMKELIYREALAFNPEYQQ
Protocol: as §4, §5, §6

SMILES | phenotype rescue of cpd mutant (cpd, det2-1 mutants) | rescue of dwarfed phenotype (cpd, det2-1 mutants) | time after treatment at which phenotypic changes were observed ([1]; bri1-116 and cpd mutants, 30 μM ABRASIN) [days] | concentration sufficient to rescue the mutant phenotypes ([1]; bri1-116 and cpd mutants, 6 days of treatments) [µM] | phenotype rescue of bri1-116 mutant [1] | rescue of dwarfed phenotype [1] | total amount of BES1 protein ([2]; abrasin 50 μM) | BES1 phosphorylation state ([2]; abrasin 5 to 10 μM) | time to shift towards the non-phosphorylated BES1 protein ([2]; after addition to the medium) [min] | effect on kinase activity (AtMPK4) | effect on kinase activity (AtMPK6) | concentration sufficient to rescue the mutant phenotypes (cpd, det2-1 mutants; 6 days of treatments) [nM] | BES1 phosphorylation state ([2]; addition of BL or MG132)
O=C(O)CCC(=O)Nc1ccc(Br)cn1 [abrasin, 4-[(5-bromo-2-pyridinyl)amino]-4-oxobutanoic acid] | rescued the phenotypes of both bri1-116 and cpd mutants to the wild-type | all mutant lines, including the bri1 receptor mutants, showed an elongated phenotype | 1 | 10 | rescued the phenotypes of both bri1-116 and cpd mutants to the wild-type | all mutant lines, including the bri1 receptor mutants, showed an elongated phenotype | the total amount of BES1 protein is also reduced | a shift towards non-phosphorylated BES1 is observed | ≤ 30 | no effect | no effect | – | –
CC(C)[C@H](C)[C@@H](O)[C@H](O)[C@@H](C)[C@H]1CC[C@H]2[C@@H]3COC(=O)[C@H]4C[C@H](O)[C@H](O)C[C@]4(C)[C@H]3CC[C@]12C [BL, brassinolide, reference compound] | rescued the dwarf statute of the cpd to a wild-type | rescues the cpd and det2-1 mutants | – | – | bri1-116 was insensitive and therefore unaffected by BL | but not the bri1 receptor mutants | – | – | – | – | – | 10 | induces more non-phosphorylated protein
